These results are taken from patent publication US4650801A, “Anti-cancer compositions for delivering 5-fluorouracil” (Taiho Pharmaceutical Company, Ltd., priority 1978, dated 1987).

Molecules are shown by their SMILES. Several values for one entry are separate records, joined by “and”; a condition that tells them apart may be missing. Equal entries are not always repeated. Where two headings read alike, the source gives them in different places.

In series [1] the test system is AH 130 tumor. The note with it: rat, in vivo. The procedure:
^3H-FT- 207(300 μ Ci/Kg) with cytosine were suspended in 5% acasia solution and administered orally to AH 130 bearing rats through a stomach tube, each of 3 rats/group. […] The rat were sacrified at various periods, the tumors were removed and used for analysis. Tumor were homogenized in a equal volume of saline, 1.0 ml of each sample was suspended in 7 volumes of cold methanol and centrifuged at 3000 rpm for 10 min. The precipitate was washed twice with 2 volumes of cold methanol and the mixture was centrifuged. The supernatant was combined with first supernatant and dried under nitrogen. […] Samples were mixed with 10 ml of scintillator containing 4 g of 2,5-diphenyloxazole, 0.4 g of 1,4-bis-[2-(4-methyl-5-phenyloxazolyl)]benzene and 100 g of naphthalene per liter of solvent composed of dioxane: toluene: ethylcellosolve=15:3:2 (v/v/v), and the radio activity was measured with Aloka LSC 673 liquid scintillation spectrometor.

The subject of series [2] is sarcoma 180. Briefly: Anti-cancer effect on subcutaneously transplanted sarcoma 180 in mice. In kind it is in vivo, mouse. The method, then: The anti-cancer compositions of this invention are tested in mice by the following methods to determine acute toxicity, anti-cancer effect and therapeutic index
Tissues of sarcoma 180, 2×10^6, are subcutaneously transplanted in the back of male mice of ICR strain (6 mice in each group). A 5-fluorouracil (a) and uracil derivative (b) in the proportions listed in Tables 1-16 are suspended in a 5% solution of gum arabic to prepare a suspension. Twenty-four hours after the transplantation and during the following seven consecutive days the suspension is orally given to the animal once every day. On the 10th day after the transplantation, the tumor is removed from the body and weighed to calculate the average weight (T) of the tumors in the group to which the composition has been given and the corresponding weight (C) in the control group to determine the ratio T/C.

For series [3] the following is noted: oral anti-cancer agent; cited from earlier work.
For series [4] the following is noted: cited from earlier work.

`Nc1ccn([C@H]2C[C@H](O)[C@@H](CO)O2)c(=O)n1` [2'-Deoxycytidine]: the “Concentration of 5-FU in cancer tissues” value in series [1] (60 min), in series [1] (120 min), in series [1] (240 min) and in series [1] (480 min) was 0 ng/mL throughout.

As to `O=c1[nH]c(=O)n(C2CCCO2)cc1F` (stereo not drawn) [Compound 5, 1-(2-Tetrahydrofuryl)-5-fluorouracil], the ED50 (in general, the dose that gives a 50% effect, or the effect in half of the subjects) in series [2] ((b) = 1(2-Tetrahydrofuryl)uracil, (b)/(a) mol ratio 1) came to 99 mg/kg; in series [2] ((b) = 1(2-Tetrahydrofuryl)uracil, (b)/(a) mol ratio 2) it was 38 mg/kg; in series [2] ((b) = 1(2-Tetrahydrofuryl)uracil, (b)/(a) mol ratio 10), 34 mg/kg; in series [2] ((b) = 1Acetyluracil, (b)/(a) mol ratio 1), 49 mg/kg; in series [2] ((b) = 1Acetyluracil, (b)/(a) mol ratio 2) it was 31 mg/kg; in series [2] ((b) = 1Acetyluracil, (b)/(a) mol ratio 5), 16 mg/kg. For the same compound, the median effective dose (ED50) in series [2] ((b) = 1Cyclohexylcarbamoyluracil, (b)/(a) mol ratio 0.5) was found to be 113 mg/kg; in series [2] ((b) = 1Cyclohexylcarbamoyluracil, (b)/(a) mol ratio 2), 55 mg/kg; in series [2] ((b) = 1Cyclohexylcarbamoyluracil, (b)/(a) mol ratio 5), 36 mg/kg; in series [2] ((b) = 1n-Hexylcarbamoyluracil, (b)/(a) mol ratio 0.5), 112 mg/kg; in series [2] ((b) = 1n-Hexylcarbamoyluracil, (b)/(a) mol ratio 2) it was 52 mg/kg; in series [2] ((b) = 1n-Hexylcarbamoyluracil, (b)/(a) mol ratio 10), 43 mg/kg. The ED50 in series [2] ((b) = 2'-Deoxycytidine, (b)/(a) mol ratio 1) stood at 102 mg/kg; in series [2] ((b) = 2'-Deoxycytidine, (b)/(a) mol ratio 2), 69 mg/kg; in series [2] ((b) = 2'-Deoxycytidine, (b)/(a) mol ratio 20) it was 39 mg/kg; in series [2] ((b) = 2'-Deoxyuridine, (b)/(a) mol ratio 0.5), 82 mg/kg; in series [2] ((b) = 2'-Deoxyuridine, (b)/(a) mol ratio 2), 37 mg/kg; in series [2] ((b) = 2'-Deoxyuridine, (b)/(a) mol ratio 10) it was 28 mg/kg. Also, the ED50 in series [2] ((b) = 3Benzoyluracil, (b)/(a) mol ratio 1) came out at 98 mg/kg; in series [2] ((b) = 3Benzoyluracil, (b)/(a) mol ratio 2), 37 mg/kg; in series [2] ((b) = 3Benzoyluracil, (b)/(a) mol ratio 10), 30 mg/kg; in series [2] ((b) = 5Bromo-2'-deoxyuridine, (b)/(a) mol ratio 1) it was 54 mg/kg; in series [2] ((b) = 5Bromo-2'-deoxyuridine, (b)/(a) mol ratio 2), 24 mg/kg; in series [2] ((b) = 5Bromo-2'-deoxyuridine, (b)/(a) mol ratio 10) it was 17 mg/kg. In addition, the ED50 is given as 55 mg/kg in series [2] ((b) = 5Bromouracil, (b)/(a) mol ratio 1); 26 mg/kg in series [2] ((b) = 5Bromouracil, (b)/(a) mol ratio 2); 23 mg/kg in series [2] ((b) = 5Bromouracil, (b)/(a) mol ratio 10); 32 mg/kg in series [2] ((b) = 5Iodouracil, (b)/(a) mol ratio 1); 17 mg/kg in series [2] ((b) = 5Iodouracil, (b)/(a) mol ratio 2); 12 mg/kg in series [2] ((b) = 5Iodouracil, (b)/(a) mol ratio 5). The 50% effective dose (ED50) in series [2] ((b) = Cytidine, (b)/(a) mol ratio 1) stood at 98 mg/kg; in series [2] ((b) = Cytidine, (b)/(a) mol ratio 2), 70 mg/kg; in series [2] ((b) = Cytidine, (b)/(a) mol ratio 20), 28 mg/kg; in series [2] ((b) = Cytosine, (b)/(a) mol ratio 1), 108 mg/kg; in series [2] ((b) = Cytosine, (b)/(a) mol ratio 2) it was 66 mg/kg; in series [2] ((b) = Cytosine, (b)/(a) mol ratio 20), 27 mg/kg. The 50% effective dose (ED50) was 112 mg/kg in series [2] ((b) = Orotic acid, (b)/(a) mol ratio 1); 72 mg/kg in series [2] ((b) = Orotic acid, (b)/(a) mol ratio 2); 59 mg/kg in series [2] ((b) = Orotic acid, (b)/(a) mol ratio 20); 94 mg/kg in series [2] ((b) = Thymidine, (b)/(a) mol ratio 2); 42 mg/kg in series [2] ((b) = Thymidine, (b)/(a) mol ratio 5); 40 mg/kg in series [2] ((b) = Thymidine, (b)/(a) mol ratio 10). Moreover, the ED50 in series [2] ((b) = Thymine, (b)/(a) mol ratio 1) is listed as 42 mg/kg; in series [2] ((b) = Thymine, (b)/(a) mol ratio 2) it was 28 mg/kg; in series [2] ((b) = Thymine, (b)/(a) mol ratio 10), 14 mg/kg; in series [2] ((b) = Uridine, (b)/(a) mol ratio 0.5), 129 mg/kg; in series [2] ((b) = Uridine, (b)/(a) mol ratio 2) it was 55 mg/kg; in series [2] ((b) = Uridine, (b)/(a) mol ratio 10), 36 mg/kg. Besides, in series [2] ((b)/(a) mol ratio 0 (alone), oral, 50% cancer inhibition (T/C)), the median effective dose (ED50) is 140 mg/kg and 134 mg/kg. In addition, the “efficacy compared with 5-fluorouracil” value in series [3] is “somewhat inferior to 5-fluorouracil in efficacy”. Further, in series [4], the “conversion to 5-fluorouracil in vivo” value was “slowly converted to 5-fluorouracil in vivo”.

In the case of `Nc1cc[nH]c(=O)n1` [Cytosine], the “Concentration of 5-FU in cancer tissues” value in series [1] (60 min), in series [1] (120 min), in series [1] (240 min) and in series [1] (480 min) was 0 ng/mL throughout.

For `O=c1c(F)cn(C2CCCO2)c(=O)n1C1CCCO1` (stereo not drawn) [FD-1], the “Concentration of 5-FU in cancer tissues” value was 33 ng/mL in series [1] (60 min), 24 ng/mL in series [1] (120 min), 11 ng/mL in series [1] (240 min) and 8 ng/mL in series [1] (480 min).
